Data: the supplement of paper PMC13380429

Key:
[1] = tested on: A549-ACE2 infected with SARS-CoV-2; assay: cell count relative to DMSO; higher = less toxic; conditions: 24 h
Caco-2 [2] = assay: cell viability relative to DMSO; higher = less toxic; conditions: 72 h
Calu-3 [3] = assay: as above; conditions: 72 h
HepG2 [4] = assay: as above; conditions: 72 h
U2OS [5] = assay: as above; conditions: 72 h
Vero E6 [6] = assay: as above; conditions: 72 h
[7] = tested on: A549-ACE2 infected with SARS-CoV-2; assay: SARS-CoV-2 infection rate relative to DMSO; higher = more infection; conditions: 24 h
A549-ACE2 [8] = assay: phospholipidosis EC50; higher = less potent phospholipidosis inducer
A549-ACE2 [9] = assay: drug-induced phospholipidosis relative to tamoxifen; higher = more phospholipidosis
[10] = tested on: A549-ACE2 infected with SARS-CoV-2; assay: morphology score (similarity to uninfected cells); higher = more like uninfected cells; conditions: 24 h
Caco-2 [11] = assay: relative viability EC50 (midpoint between 100% and the lowest measured viability); higher = less toxic; conditions: 72 h
Calu-3 [12] = assay: as above; conditions: 72 h
U2OS [13] = assay: as above; conditions: 72 h
Vero E6 [14] = assay: as above; conditions: 72 h
Caco-2 [15] = assay: drug sensitivity score (DSS) for viability; higher = more toxic; extreme values may be limits of the assay; conditions: 72 h
Calu-3 [16] = assay: as above; conditions: 72 h
HepG2 [17] = assay: as above; conditions: 72 h
U2OS [18] = assay: as above; conditions: 72 h
Vero E6 [19] = assay: as above; conditions: 72 h
HepG2 [20] = assay: relative viability EC50 (midpoint between 100% and the lowest measured viability); higher = less toxic; conditions: 72 h

C[C@@H]1CN(CC(=O)Nc2ccc3c(c2)Cc2cccc(-c4cc(=O)cc(N5CCOCC5)o4)c2S3)C[C@H](C)O1
Conditions | SARS-CoV-2 infection rate [%] | cell count [%] | cell viability [%] | morphology score | phospholipidosis EC50 [µM]
A549-ACE2 [8], 72 h | – | – | – | – | 20
Caco-2 [2], 1 nM | – | – | 97.2 | – | –
Caco-2 [2], 10 nM | – | – | 103 | – | –
Caco-2 [2], 100 nM | – | – | 101 | – | –
Caco-2 [2], 1000 nM | – | – | 103 | – | –
Caco-2 [2], 10000 nM | – | – | 47.3 | – | –
Calu-3 [3], 1 nM | – | – | 99.4 | – | –
Calu-3 [3], 10 nM | – | – | 104 | – | –
Calu-3 [3], 100 nM | – | – | 99.4 | – | –
Calu-3 [3], 1000 nM | – | – | 105 | – | –
Calu-3 [3], 10000 nM | – | – | 99.3 | – | –
HepG2 [4], 1 nM | – | – | 105 | – | –
HepG2 [4], 10 nM | – | – | 101 | – | –
HepG2 [4], 100 nM | – | – | 97.8 | – | –
HepG2 [4], 1000 nM | – | – | 96 | – | –
HepG2 [4], 10000 nM | – | – | 54.3 | – | –
U2OS [5], 1 nM | – | – | 102 | – | –
U2OS [5], 10 nM | – | – | 104 | – | –
U2OS [5], 100 nM | – | – | 95.7 | – | –
U2OS [5], 1000 nM | – | – | 98.7 | – | –
U2OS [5], 10000 nM | – | – | 89.6 | – | –
Vero E6 [6], 1 nM | – | – | 103 | – | –
Vero E6 [6], 10 nM | – | – | 99.2 | – | –
Vero E6 [6], 100 nM | – | – | 103 | – | –
Vero E6 [6], 1000 nM | – | – | 104 | – | –
Vero E6 [6], 10000 nM | – | – | 80.9 | – | –
[1], 0.3 µM | – | 115 | – | – | –
[1], 3 µM | – | 103 | – | – | –
[1], 10 µM | – | 113 | – | – | –
[1], 30 µM | – | 104 | – | – | –
[7], 0.3 µM | 108 | – | – | – | –
[7], 3 µM | 98 | – | – | – | –
[7], 10 µM | 62 | – | – | – | –
[7], 30 µM | 68 | – | – | – | –
[10], 0.3 µM | – | – | – | 0.15 | –
[10], 3 µM | – | – | – | 0.09 | –
[10], 10 µM | – | – | – | 0.57 | –
[10], 30 µM | – | – | – | 0.45 | –

drug-induced phospholipidosis [%], A549-ACE2 [9]
Conditions | 0.3 µM | 0.833333 µM | 3.33333 µM | 6.66667 µM | 10 µM | 30 µM
24 h | -1.06 | -2.12 | -2.36 | 1.18 | 7.55 | 66.8
48 h | -1.36 | -2.9 | -1.74 | 0 | 6.05 | 52.4
72 h | -1.2 | -4.15 | -2.75 | 0.476 | 6.88 | 56.1

Conditions | drug sensitivity score | relative viability EC50 [µM]
Caco-2 [11] | – | 3.48
Caco-2 [15] | 2.5 | –
Calu-3 [12] | – | > 10
Calu-3 [16] | 0 | –
HepG2 [17] | 3 | –
U2OS [13] | – | > 10
U2OS [18] | 0 | –
Vero E6 [14] | – | > 10
Vero E6 [19] | 0.4 | –

Cc1cc(CN)cc(C)c1NC(=O)c1ccc(-c2cc(Cl)ccc2Cl)o1
Conditions | SARS-CoV-2 infection rate [%] | cell count [%] | cell viability [%] | morphology score | phospholipidosis EC50 [µM]
A549-ACE2 [8], 24 h | – | – | – | – | 2.39
A549-ACE2 [8], 48 h | – | – | – | – | 3.42
A549-ACE2 [8], 72 h | – | – | – | – | 4.24
Caco-2 [2], 1 nM | – | – | 105 | – | –
Caco-2 [2], 10 nM | – | – | 101 | – | –
Caco-2 [2], 100 nM | – | – | 98.1 | – | –
Caco-2 [2], 1000 nM | – | – | 102 | – | –
Caco-2 [2], 10000 nM | – | – | 79.1 | – | –
Calu-3 [3], 1 nM | – | – | 104 | – | –
Calu-3 [3], 10 nM | – | – | 101 | – | –
Calu-3 [3], 100 nM | – | – | 104 | – | –
Calu-3 [3], 1000 nM | – | – | 102 | – | –
Calu-3 [3], 10000 nM | – | – | 60.1 | – | –
HepG2 [4], 1 nM | – | – | 106 | – | –
HepG2 [4], 10 nM | – | – | 103 | – | –
HepG2 [4], 100 nM | – | – | 97.8 | – | –
HepG2 [4], 1000 nM | – | – | 107 | – | –
HepG2 [4], 10000 nM | – | – | 66.7 | – | –
U2OS [5], 1 nM | – | – | 98 | – | –
U2OS [5], 10 nM | – | – | 102 | – | –
U2OS [5], 100 nM | – | – | 98.5 | – | –
U2OS [5], 1000 nM | – | – | 101 | – | –
U2OS [5], 10000 nM | – | – | 83.1 | – | –
Vero E6 [6], 1 nM | – | – | 103 | – | –
Vero E6 [6], 10 nM | – | – | 97.5 | – | –
Vero E6 [6], 100 nM | – | – | 105 | – | –
Vero E6 [6], 1000 nM | – | – | 96.6 | – | –
Vero E6 [6], 10000 nM | – | – | 96.8 | – | –
[1], 0.3 µM | – | 101 | – | – | –
[1], 3 µM | – | 120 | – | – | –
[1], 10 µM | – | 120 | – | – | –
[1], 30 µM | – | 1 | – | – | –
[7], 0.3 µM | 101 | – | – | – | –
[7], 3 µM | 34 | – | – | – | –
[7], 10 µM | 10 | – | – | – | –
[7], 30 µM | 43 | – | – | – | –
[10], 0.3 µM | – | – | – | 0.02 | –
[10], 3 µM | – | – | – | 0.84 | –
[10], 10 µM | – | – | – | 0.68 | –
[10], 30 µM | – | – | – | -0.13 | –

drug-induced phospholipidosis [%], A549-ACE2 [9]
Conditions | 0.3 µM | 0.833333 µM | 3.33333 µM | 6.66667 µM | 10 µM
24 h | 2.63 | 5.94 | 68 | 88.7 | 90.2
48 h | 3.74 | 4.56 | 48.1 | 81.5 | 90.1
72 h | 1.91 | 1.3 | 32.6 | 66.3 | 78.5

Conditions | drug sensitivity score | relative viability EC50 [µM]
Caco-2 [11] | – | > 10
Caco-2 [15] | 0.6 | –
Calu-3 [16] | 1.8 | –
HepG2 [17] | 1.2 | –
U2OS [13] | – | > 10
U2OS [18] | 0.3 | –
Vero E6 [14] | – | > 10
Vero E6 [19] | 0 | –

COC(=O)[C@]12CCC(C)(C)C[C@H]1[C@H]1C(=O)C=C3[C@@]4(C)C=C(C#N)C(=O)C(C)(C)[C@@H]4CC[C@@]3(C)[C@]1(C)CC2 [Bardoxolone Methyl]
Conditions | SARS-CoV-2 infection rate, [7] [%] | cell count, [1] [%] | cell viability, Caco-2 [2] [%] | cell viability, Calu-3 [3] [%] | cell viability, HepG2 [4] [%] | cell viability, U2OS [5] [%] | cell viability, Vero E6 [6] [%] | morphology score, [10]
1 nM | – | – | 86.4 | 107 | 94.7 | 101 | 98.6 | –
10 nM | – | – | 88.7 | 124 | 107 | 96.7 | 107 | –
100 nM | – | – | 85.9 | 117 | 87.4 | 96.6 | 92.3 | –
0.3 µM | 98 | 97 | – | – | – | – | – | 0.09
1000 nM | – | – | 14.1 | 12.8 | 4 | 0.1 | 5.5 | –
3 µM | 61 | 5 | – | – | – | – | – | -0.03
10000 nM | – | – | -0.2 | 0 | -0.2 | -0.3 | -0.3 | –

A549-ACE2 [9], 0.3 µM
Conditions | drug-induced phospholipidosis [%]
24 h | 0.65
48 h | 2.45
72 h | 7

Conditions | drug sensitivity score | relative viability EC50 [µM]
Caco-2 [11] | – | 0.313
Caco-2 [15] | 17.5 | –
Calu-3 [12] | – | 0.503
Calu-3 [16] | 15.4 | –
HepG2 [17] | 19.4 | –
HepG2 [20] | – | 0.239
U2OS [13] | – | 0.292
U2OS [18] | 18.4 | –
Vero E6 [14] | – | 0.293
Vero E6 [19] | 18.3 | –
